Broadly, the IC50 is the concentration needed to halve the response being measured.

Here are results for twelve molecules from patent US20150031668A1, “CHROMAN DERIVATIVES AS TRPM8 INHIBITORS” (AMGEN INC., priority 2013, published 2015).

Counter-ions that a name gives are not always drawn.

T1 sequence (Q7Z2W7 whole entry): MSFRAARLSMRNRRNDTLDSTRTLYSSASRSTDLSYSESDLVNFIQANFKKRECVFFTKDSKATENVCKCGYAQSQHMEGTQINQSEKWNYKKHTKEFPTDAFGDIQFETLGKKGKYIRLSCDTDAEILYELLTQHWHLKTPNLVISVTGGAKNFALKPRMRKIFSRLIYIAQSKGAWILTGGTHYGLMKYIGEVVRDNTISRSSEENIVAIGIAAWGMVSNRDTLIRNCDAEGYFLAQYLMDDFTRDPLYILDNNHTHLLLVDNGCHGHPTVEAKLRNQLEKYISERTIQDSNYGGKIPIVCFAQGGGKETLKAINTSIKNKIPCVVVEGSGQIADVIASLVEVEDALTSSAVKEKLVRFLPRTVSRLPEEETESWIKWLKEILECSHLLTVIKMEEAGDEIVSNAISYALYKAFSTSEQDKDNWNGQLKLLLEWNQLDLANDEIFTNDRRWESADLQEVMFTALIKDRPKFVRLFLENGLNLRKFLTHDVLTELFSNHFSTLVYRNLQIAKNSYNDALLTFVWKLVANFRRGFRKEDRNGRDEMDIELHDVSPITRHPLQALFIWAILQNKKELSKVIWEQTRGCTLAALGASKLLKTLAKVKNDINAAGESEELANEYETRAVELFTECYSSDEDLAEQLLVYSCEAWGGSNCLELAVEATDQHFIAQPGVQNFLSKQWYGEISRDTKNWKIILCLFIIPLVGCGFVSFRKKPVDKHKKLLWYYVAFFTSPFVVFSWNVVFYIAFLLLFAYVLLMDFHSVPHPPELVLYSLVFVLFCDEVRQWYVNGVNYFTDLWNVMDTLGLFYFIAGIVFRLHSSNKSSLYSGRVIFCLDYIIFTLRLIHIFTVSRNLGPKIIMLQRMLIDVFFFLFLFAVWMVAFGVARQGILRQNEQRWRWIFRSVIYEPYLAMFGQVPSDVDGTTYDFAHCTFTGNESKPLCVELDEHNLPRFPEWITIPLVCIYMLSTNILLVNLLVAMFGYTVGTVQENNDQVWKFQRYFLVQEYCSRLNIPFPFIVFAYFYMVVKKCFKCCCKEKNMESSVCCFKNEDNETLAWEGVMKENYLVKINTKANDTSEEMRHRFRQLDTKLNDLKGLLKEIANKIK

This test addresses T1, human TRPM8 (Homo sapiens, UniProt Q7Z2W7).
T1 construct: expressed in transfected cells; host or cells: Chinese hamster ovary (CHO) cells, T-REx tetracycline-inducible expression system (Invitrogen); co-transfected with pcDNA3.1 aequorin
In words: Luminescence readout assay for measuring intracellular calcium (aequorin, CHO cells expressing human TRPM8; icilin, L-menthol or cold activation). The conditions noted are these: CHO cells expressing human TRPM8, icilin activation (1 μM), aequorin luminescence; read-out: hTRPM8 IC50. The test is classed as cell-based. An outline of the steps:
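Activation was by 1 μM icilin, 100 μM L-menthol (test compound 2.5 min ahead) or cold buffer below 10° C (compound 1 min ahead). Calcium rise measured as aequorin luminescence in CHO cells with tetracycline-inducible human TRPM8.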
A general note: Calcium flux is commonly read through the fluorescence of an indicator in the cells.
With `COc1ccc(C(=O)O)cc1C(=O)N[C@]1(c2ccc(OC(F)(F)F)c(F)c2)CCOc2cccnc21` [Example 316, (S)-3-((4-(3-fluoro-4-(trifluoro-methoxy)phenyl)-3,4-dihydro-2H-pyrano[3,2-b]pyridin-4-yl)carbamoyl)-4-methoxybenzoic acid], the IC50 was 0.089 µM.

As for `COc1ccc(C(=O)N[C@]2(c3ccc(OC(F)(F)F)c(F)c3)CCOc3cccnc32)cc1C(=O)O` [Example 315, (S)-5-((4-(3-fluoro-4-(trifluoromethoxy)phenyl)-3,4-dihydro-2H-pyrano[3,2-b]pyridin-4-yl)carbamoyl)-2-methoxybenzoic acid], the IC50 turned out to be 0.834 µM.

Turning to `C[C@@H](O)Cn1cc(C(=O)N[C@]2(c3ccc(OC(F)(F)F)c(F)c3)CCOc3cccnc32)ccc1=O` [Example 202, N-((S)-4-(3-fluoro-4-(trifluoromethoxy)phenyl)-3,4-dihydro-2H-pyrano[3,2-b]pyridin-4-yl)-1-((R)-2-hydroxypropyl)-6-oxo-1,6-dihydropyridine-3-carboxamide], the IC50 was found to be 0.027 µM.

Take `Cn1c(C(=O)N[C@]2(c3ccc(OC(F)(F)F)c(F)c3)CCOc3cccnc32)cnc1Br` [Example 180, (S)-2-bromo-N-(4-(3-fluoro-4-(trifluoromethoxy)phenyl)-3,4-dihydro-2H-pyrano[3,2-b]pyridin-4-yl)-1-methyl-1H-imidazole-5-carboxamide]: the IC50 came to 0.032 µM.

For the molecule `O=C(N[C@]1(c2ccc(OC(F)(F)F)cc2)CCOc2cccnc21)c1ccc2cc[nH]c2c1` [Example 235, (S)-N-(4-(4-(trifluoromethoxy)phenyl)-3,4-dihydro-2H-pyrano[3,2-b]pyridin-4-yl)-1H-indole-6-carboxamide formate], the IC50 was found to be 0.0357 µM.

For the molecule `O=C(N[C@]1(c2ccc(OC(F)(F)F)c(F)c2)CCOc2cccnc21)c1ccc([N+](=O)[O-])cn1` [Example 62, (S)-N-(4-(3-fluoro-4-(trifluoromethoxy)phenyl)-3,4-dihydro-2H-pyrano[3,2-b]pyridin-4-yl)-5-nitropicolinamide], the 50% inhibitory concentration (IC50) amounted to 0.051 µM.

On to `CCc1cc(C(=O)N[C@]2(c3ccc(OC(F)(F)F)c(F)c3)CCOc3cccnc32)ccc1C(=O)OC` [Example 191, (S)-methyl 2-ethyl-4-((4-(3-fluoro-4-(trifluoromethoxy)phenyl)-3,4-dihydro-2H-pyrano[3,2-b]pyridin-4-yl)carbamoyl) benzoate], for which the IC50 came to 0.011 µM.

`Cc1nc(-c2cccc(C(=O)N[C@]3(c4ccc(OC(F)(F)F)cc4)CCOc4cccnc43)c2)no1` [Example 275, (S)-3-(5-methyl-1,2,4-oxadiazol-3-yl)-N-(4-(4-(trifluoromethoxy)phenyl)-3,4-dihydro-2H-pyrano[3,2-b]pyridin-4-yl)benzamide formate]: the IC50 was 0.034 µM.

As to `COC(=O)c1ccc(C(=O)N[C@]2(c3ccc(C(F)(F)F)c(F)c3)CCOc3cccnc32)nc1` [Example 172, (S)-methyl 6-((4-(3-fluoro-4-(trifluoromethyl)phenyl)-3,4-dihydro-2H-pyrano[3,2-b]pyridin-4-yl)carbamoyl) nicotinate], the IC50 amounted to 0.022 µM.

`O=C(N[C@]1(c2ccc(C(F)(F)F)cc2)CCOc2cccnc21)c1c[nH]c(=O)cn1` [Example 45, (S)-5-oxo-N-(4-(4-(trifluoromethyl)phenyl)-3,4-dihydro-2H-pyrano[3,2-b]pyridin-4-yl)-4,5-dihydropyrazine-2-carboxamide]: the IC50 is 0.038 µM.

On to `COc1ccc(C(=O)N[C@]2(c3ccc(C(F)(F)F)cc3)CCOc3cccnc32)nn1` [Example 47, (S)-6-methoxy-N-(4-(4-(trifluoromethyl)phenyl)-3,4-dihydro-2H-pyrano[3,2-b]pyridin-4-yl)pyridazine-3-carboxamide], for which the IC50 was 0.082 µM.

As to `CNc1cc(C(=O)N[C@]2(c3ccc(OC(F)(F)F)c(F)c3)CCOc3cccnc32)ccc1C(=O)O` [Example 294, (S)-4-((4-(3-fluoro-4-(trifluoromethoxy)phenyl)-3,4-dihydro-2H-pyrano[3,2-b]pyridin-4-yl)carbamoyl)-2-(methylamino)benzoic acid], the IC50 stood at 0.003 µM.
